Measurements as given in PubChem BioAssay (NCI).
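GI50 is the concentration that inhibits growth by half. TGI: total growth inhibition.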

Experiments:
Experiment in all cases: DTP human tumour cell line panel, 384-well format
HOP-92 NSCLC = tested on: HOP-92 NSCLC
HT29 colon = tested on: HT29 colon
NCI-H226 lung = tested on: NCI-H226 lung
UACC-257 melanoma = tested on: UACC-257 melanoma
HOP-62 NSCLC = tested on: HOP-62 NSCLC
PC-3 prostate = tested on: PC-3 prostate
OVCAR-5 ovarian = tested on: OVCAR-5 ovarian
SF-268 CNS = tested on: SF-268 CNS
COLO 205 colon = tested on: COLO 205 colon
LOX IMVI melanoma = tested on: LOX IMVI melanoma
TK-10 renal = tested on: TK-10 renal
SNB-75 CNS = tested on: SNB-75 CNS
MDA-MB-435 melanoma = tested on: MDA-MB-435 melanoma
RXF 393 renal = tested on: RXF 393 renal
OVCAR-8 ovarian = tested on: OVCAR-8 ovarian
OVCAR-4 ovarian = tested on: OVCAR-4 ovarian
SN12C renal = tested on: SN12C renal
HCT-116 colon = tested on: HCT-116 colon
MDA-MB-468 breast = tested on: MDA-MB-468 breast
MCF7 breast = tested on: MCF7 breast
IGROV1 ovarian = tested on: IGROV1 ovarian
NCI-H522 lung = tested on: NCI-H522 lung
SK-OV-3 ovarian = tested on: SK-OV-3 ovarian
NCI-H23 lung = tested on: NCI-H23 lung
SW-620 colon = tested on: SW-620 colon
HCC-2998 colon = tested on: HCC-2998 colon
A549 NSCLC = tested on: A549 NSCLC
SR leukemia = tested on: SR leukemia
NCI-H460 NSCLC = tested on: NCI-H460 NSCLC
SNB-19 CNS = tested on: SNB-19 CNS
T-47D breast = tested on: T-47D breast
ACHN renal = tested on: ACHN renal
K-562 leukemia = tested on: K-562 leukemia
M14 melanoma = tested on: M14 melanoma
EKVX NSCLC = tested on: EKVX NSCLC
HS 578T breast = tested on: HS 578T breast
CAKI-1 renal = tested on: CAKI-1 renal
SK-MEL-28 melanoma = tested on: SK-MEL-28 melanoma
DU-145 prostate = tested on: DU-145 prostate
OVCAR-3 ovarian = tested on: OVCAR-3 ovarian
BT-549 breast = tested on: BT-549 breast
CCRF-CEM leukemia = tested on: CCRF-CEM leukemia
HCT-15 colon = tested on: HCT-15 colon
MDA-MB-231 breast = tested on: MDA-MB-231 breast
A498 renal = tested on: A498 renal
MALME-3M melanoma = tested on: MALME-3M melanoma
SK-MEL-5 melanoma = tested on: SK-MEL-5 melanoma
SF-539 CNS = tested on: SF-539 CNS
SF-295 CNS = tested on: SF-295 CNS
NCI/ADR-RES ovarian = tested on: NCI/ADR-RES ovarian
NCI-H322M lung = tested on: NCI-H322M lung
KM12 colon = tested on: KM12 colon
786-0 renal = tested on: 786-0 renal
UACC-62 melanoma = tested on: UACC-62 melanoma
U251 glioblastoma = tested on: U251 glioblastoma
UO-31 renal = tested on: UO-31 renal

N#CCC1CCN(c2nc(Nc3ccc(N4CCC(O)CC4)cc3)c3c(=O)[nH]ncc3n2)CC1
GI50 (HOP-92 NSCLC): 0.329 µM | TGI (HOP-92 NSCLC): > 100 µM | GI50 (HT29 colon): 0.427 µM | TGI (HT29 colon): > 100 µM | GI50 (NCI-H226 lung): 0.281 µM | TGI (NCI-H226 lung): > 100 µM | GI50 (UACC-257 melanoma): > 100 µM | TGI (UACC-257 melanoma): > 100 µM | GI50 (HOP-62 NSCLC): 3.71 µM | TGI (HOP-62 NSCLC): > 100 µM | GI50 (PC-3 prostate): > 100 µM | TGI (PC-3 prostate): > 100 µM | GI50 (OVCAR-5 ovarian): 0.602 µM | TGI (OVCAR-5 ovarian): > 100 µM | GI50 (SF-268 CNS): 1.43 µM | TGI (SF-268 CNS): 9.43 µM | GI50 (COLO 205 colon): 0.24 µM | TGI (COLO 205 colon): 0.921 µM | GI50 (LOX IMVI melanoma): 0.49 µM | TGI (LOX IMVI melanoma): 2.6 µM | GI50 (TK-10 renal): 0.425 µM | TGI (TK-10 renal): 4.85 µM | GI50 (SNB-75 CNS): 1.24 µM | TGI (SNB-75 CNS): 3.17 µM | GI50 (MDA-MB-435 melanoma): 0.311 µM | TGI (MDA-MB-435 melanoma): > 100 µM | GI50 (RXF 393 renal): 0.893 µM | TGI (RXF 393 renal): 3.27 µM | GI50 (OVCAR-8 ovarian): 5.18 µM | TGI (OVCAR-8 ovarian): > 100 µM | GI50 (OVCAR-4 ovarian): > 100 µM | TGI (OVCAR-4 ovarian): > 100 µM | GI50 (SN12C renal): 0.243 µM | TGI (SN12C renal): > 100 µM | GI50 (HCT-116 colon): 0.336 µM | TGI (HCT-116 colon): > 100 µM | GI50 (MDA-MB-468 breast): 1.01 µM | TGI (MDA-MB-468 breast): 3.47 µM | GI50 (MCF7 breast): 0.254 µM | TGI (MCF7 breast): > 100 µM | GI50 (IGROV1 ovarian): 0.239 µM | TGI (IGROV1 ovarian): 3.48 µM | GI50 (NCI-H522 lung): 0.196 µM | TGI (NCI-H522 lung): 0.929 µM | GI50 (SK-OV-3 ovarian): 0.235 µM | TGI (SK-OV-3 ovarian): 4.81 µM | GI50 (NCI-H23 lung): 0.293 µM | TGI (NCI-H23 lung): > 100 µM | GI50 (SW-620 colon): 0.441 µM | TGI (SW-620 colon): 2.21 µM | GI50 (HCC-2998 colon): 0.378 µM | TGI (HCC-2998 colon): 2.91 µM | GI50 (A549 NSCLC): 0.365 µM | TGI (A549 NSCLC): > 100 µM | GI50 (SR leukemia): 0.18 µM | TGI (SR leukemia): 0.327 µM | GI50 (NCI-H460 NSCLC): 0.319 µM | TGI (NCI-H460 NSCLC): > 100 µM | GI50 (SNB-19 CNS): 2.75 µM | TGI (SNB-19 CNS): > 100 µM | GI50 (T-47D breast): 4.39 µM | TGI (T-47D breast): > 100 µM | GI50 (ACHN renal): 0.547 µM | TGI (ACHN renal): > 100 µM | GI50 (K-562 leukemia): 0.482 µM | TGI (K-562 leukemia): > 100 µM | GI50 (M14 melanoma): 0.346 µM | TGI (M14 melanoma): > 100 µM | GI50 (EKVX NSCLC): 0.277 µM | TGI (EKVX NSCLC): > 100 µM | GI50 (HS 578T breast): 0.673 µM | TGI (HS 578T breast): 3.54 µM | GI50 (CAKI-1 renal): 0.349 µM | TGI (CAKI-1 renal): > 100 µM | GI50 (SK-MEL-28 melanoma): 0.81 µM | TGI (SK-MEL-28 melanoma): > 100 µM | GI50 (DU-145 prostate): 0.704 µM | TGI (DU-145 prostate): > 100 µM | GI50 (OVCAR-3 ovarian): 1.13 µM | TGI (OVCAR-3 ovarian): > 100 µM | GI50 (BT-549 breast): 0.538 µM | TGI (BT-549 breast): 2.25 µM | GI50 (CCRF-CEM leukemia): 0.332 µM | TGI (CCRF-CEM leukemia): > 100 µM | GI50 (HCT-15 colon): 0.453 µM | TGI (HCT-15 colon): > 100 µM | GI50 (MDA-MB-231 breast): 5.42 µM | TGI (MDA-MB-231 breast): > 100 µM | GI50 (A498 renal): 0.804 µM | TGI (A498 renal): > 100 µM | GI50 (MALME-3M melanoma): 0.472 µM | TGI (MALME-3M melanoma): > 100 µM | GI50 (SK-MEL-5 melanoma): 0.338 µM | TGI (SK-MEL-5 melanoma): > 100 µM | GI50 (SF-539 CNS): 0.793 µM | TGI (SF-539 CNS): 2.39 µM

CN1CC[C@H](N(C)C(=O)N2CC(c3cc(F)ccc3F)=C[C@@]2(CO)c2ccccc2)[C@H](F)C1
GI50 (HOP-92 NSCLC): 0.198 µM | TGI (HOP-92 NSCLC): 32.6 µM | TGI (NCI-H226 lung): 8.16 µM | TGI (SF-295 CNS): 1.28 µM | TGI (HOP-62 NSCLC): 25.9 µM | TGI (PC-3 prostate): 27.1 µM | TGI (SF-268 CNS): 11.7 µM | TGI (LOX IMVI melanoma): 20 µM | GI50 (TK-10 renal): 4.89 µM | TGI (TK-10 renal): 35.3 µM | TGI (SNB-75 CNS): 27.4 µM | TGI (OVCAR-8 ovarian): 11.4 µM | GI50 (OVCAR-4 ovarian): 21.6 µM | TGI (OVCAR-4 ovarian): > 100 µM | TGI (HCT-116 colon): 14.6 µM | TGI (NCI/ADR-RES ovarian): 0.0135 µM | TGI (MCF7 breast): 35.4 µM | GI50 (IGROV1 ovarian): 6.07 µM | TGI (IGROV1 ovarian): > 100 µM | TGI (SK-OV-3 ovarian): 26.8 µM | TGI (NCI-H23 lung): 0.0371 µM | TGI (NCI-H322M lung): 55.6 µM | TGI (SW-620 colon): > 100 µM | TGI (KM12 colon): 10.9 µM | TGI (HCC-2998 colon): 13.3 µM | TGI (786-0 renal): 12.4 µM | TGI (A549 NSCLC): > 100 µM | TGI (SNB-19 CNS): 27.5 µM | TGI (T-47D breast): 43.1 µM | GI50 (ACHN renal): 9.3 µM | TGI (ACHN renal): > 100 µM | TGI (UACC-62 melanoma): 16.5 µM | TGI (U251 glioblastoma): 14.5 µM | GI50 (UO-31 renal): 3.34 µM | TGI (UO-31 renal): 95.1 µM | TGI (EKVX NSCLC): 28.2 µM | TGI (CAKI-1 renal): > 100 µM | GI50 (SK-MEL-28 melanoma): 0.646 µM | TGI (SK-MEL-28 melanoma): 19.5 µM | TGI (BT-549 breast): 13.6 µM | TGI (HCT-15 colon): 28 µM | TGI (MDA-MB-231 breast): > 100 µM | TGI (A498 renal): 13 µM | TGI (MALME-3M melanoma): 14.5 µM | TGI (SK-MEL-5 melanoma): 1.07 µM | TGI (SF-539 CNS): 11.6 µM
